From patent publication US7494780B2, “Epididymis-specific defensin for evaluating and regulating male fertility” (The Chinese University of Hong Kong, priority 2004, dated 2009)

Tested on: Bin1b
Assay: In vivo antisense oligonucleotide treatment, injection into mid-caput epididymis
Set-up: species or system rat
Experimental: Sperm motility analysis. For the motility analysis, we used an HTM-IVOS system (version 10.8, Hamilton-Thorn Research) with the following settings: objective, ×4; minimum cell size, six pixels; minimum contrast, 65; minimum static contrast, 30; low VAP cut-off, 30.0; low VSL cut-off, 20.0; threshold straightness, 50%; static head size, 0.29-10.0; static head intensity, 0.29-1.11; magnification, 0.82. Sixty frames were acquired at a frame rate of 60 Hz. At least 200 tracks were measured for each specimen at 37° C. We recorded at least 30 points for each tract. The playback function of the system was used to check its accuracy.
Flow cytometry analysis. Rat sperm were stained with Bin1b polyclonal antibody at a final concentration of 1:200. In control samples, the antibody was replaced by preimmune serum at the same concentration. After incubation at 4° C. overnight, the sperm were washed twice with PBS containing 4 mg ml^−1 bovine serum albumin and incubated for 45 min at 22° C. with the secondary antibody, fluorescein isothiocyanate (FITC)-conjugated goat antibody against rabbit IgG (Zymed Laboratories) at a dilution of 1:50. After three washes, the sperm were analysed on a flow cytometer (Beckman Coulter). We analyzed 10,000 individual sperm per sample for FITC fluorescence emissions. A negative control of sperm stained by normal rabbit IgG was used to set the threshold for specific Bin1b staining. The percentage of sperm specifically stained for Bin1b was obtained by subtracting background fluorescence.
In vivo antisense oligonucleotide treatment. The skin covering the testis of a male Sprague-Dawley rat (aged >3 months) was cut open under anaesthesia and 30 μl of Bin1b antisense oligonucleotide (5′-[…]-3′; SEQ ID NO:3) or control sense oligonucleotide (5′-[…]-3′; SEQ ID NO:4) solution (20 μg ml^−) was injected into the proximal side of the mid-caput epididymis. The sperm were collected for assessment 48 h after injection. The use of animals in this project was authorized by the Animal Research Ethics Committee of The Chinese University of Hong Kong.

[1] = versus sense oligonucleotide control, 48 h after injection

Question: How did the “expression of Bin1b messenger RNA in the caput epididymis (semiquantitative RT-PCR)” value (20 μg ml^−1, versus sense control) turn out when “5′-AGAGTAACAAAACCTTCATG-3′ (listed as DNA, chemistry not given here) [antisense Bin1b oligonucleotide]” was run?
Answer: significantly suppressed

Question: And the “Bin1b binding to sperm collected in the distal caput region (flow cytometry)” value (versus sense control)?
Answer: considerable reduction

Question: And the “motility of sperm from the distal caput epididymis” value [1]?
Answer: reduced sperm motility

Question: And the “progressive movement of sperm from the distal caput epididymis” value [1]?
Answer: significantly lower

Question: What about the “motility of sperm from the distal caput epididymis” value (versus sense oligonucleotide control, 48 h after injection, listed as Bin1b antisense oligonucleotide) of the same substance?
Answer: significantly lower
